Assay results as given in patent publication US12559529B2, “NPY2 receptor agonists” (Boehringer Ingelheim International GmbH, priority 2019, dated 2026).
pKi: −log10 of the molar value. *1 amine or outer side, *2 acyl side, *3 side chain or, on linkers, in order; H or OH if unused. Where a SMILES comes first, the peptide text is derived from it. Side-chain parts run from the residue outwards. The star is where a group is joined. C18 diacid = O=C(O)CCCCCCCCCCCCCCCCC(=O)*; γGlu = O=C(O)[C@H](CCC(=O)[*:2])N[*:1]; Isovaleryl = CC(C)CC(=O)*; AEEA = NCCOCCOCC(=O)O

Biological target: T1, Human Neuropeptide Y2 Receptor (Homo sapiens, UniProt P49146)
T1 construct: purchased CHEMICON HTS066M
T1 sequence (P49146 1-381): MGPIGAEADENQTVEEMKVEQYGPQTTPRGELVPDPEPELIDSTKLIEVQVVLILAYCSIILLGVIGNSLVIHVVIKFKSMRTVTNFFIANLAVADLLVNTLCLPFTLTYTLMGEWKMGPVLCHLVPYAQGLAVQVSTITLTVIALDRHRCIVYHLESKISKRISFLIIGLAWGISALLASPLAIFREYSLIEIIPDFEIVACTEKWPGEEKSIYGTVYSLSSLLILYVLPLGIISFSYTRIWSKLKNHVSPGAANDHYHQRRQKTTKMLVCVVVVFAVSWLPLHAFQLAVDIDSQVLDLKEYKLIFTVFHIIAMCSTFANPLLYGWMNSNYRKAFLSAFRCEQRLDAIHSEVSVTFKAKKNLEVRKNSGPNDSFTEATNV
Assay: Radioligand binding competition assay (RLB)
Conditions: Table 3; human 125I-PYY (1-36) 0.02 nM, Y2 receptor membranes; read-out: Ki
How it was run: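 Peptide dilutions made in pH 7.4 HEPES assay buffer with 0.2% ovalbumin; human Y2 receptor membranes added at 0.5 μg protein/well; plates shaken 2 h at room temperature; reaction stopped by vacuum filtration onto PEI-treated GF/C filters with ice-cold high-salt washes; radioactivity counted by scintillation.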

pKi | SMILES
8.88 | CC(C)CC(=O)N[C@@H](C)C(=O)N1CCC[C@H]1C(=O)N[C@@H](CCC(=O)O)C(=O)N[C@@H](CCCCNC(=O)COCCOCCNC(=O)COCCOCCNC(=O)CC[C@H](NC(=O)CCCCCCCCCCCCCCCCC(=O)O)C(=O)O)C(=O)N1CCC[C@H]1C(=O)N[C@@H](CCC(=O)O)C(=O)N[C@@H](C)C(=O)N[C@@H](CC(=O)O)C(=O)N[C@@H](C)C(=O)N[C@@H](CO)C(=O)N1CCC[C@H]1C(=O)N[C@@H](CCC(=O)O)C(=O)N[C@@H](CCC(=O)O)C(=O)N[C@@H](CC(C)C)C(=O)N[C@@H](CCC(N)=O)C(=O)N[C@@H](CCCNC(=N)N)C(=O)N[C@@H](Cc1ccc(O)cc1)C(=O)N[C@@H](Cc1ccc(O)cc1)C(=O)N[C@H](C(=O)N[C@@H](CCC(=O)O)C(=O)N[C@@H](CC(C)C)C(=O)N[C@@H](CCCNC(=N)N)C(=O)N[C@@H](Cc1c[nH]cn1)C(=O)N[C@@H](Cc1ccc(O)cc1)C(=O)N[C@@H](Cc1ccc(O)cc1)C(=O)N[C@@H](CC(N)=O)C(=O)N[C@@H](Cc1c[nH]c2ccccc12)C(=O)N[C@@H](CC(C)C)C(=O)N[C@H](C(=O)N[C@@H](CCCNC(=N)N)C(=O)N[C@@H](CCC(N)=O)C(=O)N[C@@H](CCCNC(=N)N)C(=O)N[C@@H](Cc1ccc(O)cc1)C(N)=O)[C@@H](C)O)C(C)C [Compound 135, N{alpha-4}-(3-methylbutanoyl)-N{epsilon-7}-[2-(2-{2-[2-(2-{2-[(4S)-4-carboxy-4-(17-carboxyheptadecanamido)butanamido]ethoxy}ethoxy)acetamido]ethoxy}ethoxy)acetamido]-[4A,7K,9E,10A,18Q,22V,23E,28Y,30W,31L]hPYY (4-36)]
9.05 | CC(C)CC(=O)N[C@@H](C)C(=O)N1CCC[C@H]1C(=O)N[C@@H](CCC(=O)O)C(=O)N[C@@H](CCCCNC(=O)COCCOCCNC(=O)COCCOCCNC(=O)CC[C@H](NC(=O)CCCCCCCCCCCCCCCCC(=O)O)C(=O)O)C(=O)N1CCC[C@H]1C(=O)N[C@@H](CCC(=O)O)C(=O)N[C@@H](C)C(=O)N[C@@H](CC(=O)O)C(=O)N[C@@H](CO)C(=O)N[C@@H](CO)C(=O)N1CCC[C@H]1C(=O)N[C@@H](CCC(=O)O)C(=O)N[C@@H](CCC(=O)O)C(=O)N[C@@H](CC(C)C)C(=O)N[C@@H](CCC(N)=O)C(=O)N[C@@H](CCCNC(=N)N)C(=O)N[C@@H](Cc1ccc(O)cc1)C(=O)N[C@@H](Cc1ccc(O)cc1)C(=O)N[C@H](C(=O)N[C@@H](CO)C(=O)N[C@@H](CC(C)C)C(=O)N[C@@H](CCCNC(=N)N)C(=O)N[C@@H](Cc1c[nH]cn1)C(=O)N[C@@H](Cc1ccc(O)cc1)C(=O)N[C@@H](Cc1ccc(O)cc1)C(=O)N[C@@H](CC(N)=O)C(=O)N[C@@H](Cc1c[nH]c2ccccc12)C(=O)N[C@@H](CC(C)C)C(=O)N[C@H](C(=O)N[C@@H](CCCNC(=N)N)C(=O)N[C@@H](CCC(N)=O)C(=O)N[C@@H](CCCNC(=N)N)C(=O)N[C@@H](Cc1ccc(O)cc1)C(N)=O)[C@@H](C)O)C(C)C [Compound 136, N{alpha-4}-(3-methylbutanoyl)-N{epsilon-7}-[2-(2-{2-[2-(2-{2-[(4S)-4-carboxy-4-(17-carboxyheptadecanamido)butanamido]ethoxy}ethoxy)acetamido]ethoxy}ethoxy)acetamido]-[4A,7K,9E,10A,12S,18Q,22V,28Y,30W,31L]hPYY (4-36)] (Isovaleryl-APEK([AEEA-AEEA-γGlu-C18 diacid])PEADSSPEELQRYYVSLRHYYNWLTRQRY-NH2)
8.85 | CC(C)CC(=O)N[C@@H](C)C(=O)N1CCC[C@H]1C(=O)N[C@@H](C)C(=O)N[C@@H](CCCCNC(=O)COCCOCCNC(=O)COCCOCCNC(=O)CC[C@H](NC(=O)CCCCCCCCCCCCCCCCC(=O)O)C(=O)O)C(=O)N1CCC[C@H]1C(=O)N[C@@H](CCC(=O)O)C(=O)N[C@@H](CCC(=O)O)C(=O)N[C@@H](CC(=O)O)C(=O)N[C@@H](C)C(=O)N[C@@H](CO)C(=O)N1CCC[C@H]1C(=O)N[C@@H](CCC(=O)O)C(=O)N[C@@H](CCC(=O)O)C(=O)N[C@@H](CC(C)C)C(=O)N[C@@H](CCC(N)=O)C(=O)N[C@@H](CCC(N)=O)C(=O)N[C@@H](Cc1ccc(O)cc1)C(=O)N[C@@H](Cc1ccc(O)cc1)C(=O)N[C@H](C(=O)N[C@@H](CO)C(=O)N[C@@H](CC(C)C)C(=O)N[C@@H](CCCNC(=N)N)C(=O)N[C@@H](Cc1c[nH]cn1)C(=O)N[C@@H](Cc1ccc(O)cc1)C(=O)N[C@@H](Cc1ccc(O)cc1)C(=O)N[C@@H](CC(N)=O)C(=O)N[C@@H](Cc1c[nH]c2ccccc12)C(=O)N[C@@H](CC(C)C)C(=O)N[C@H](C(=O)N[C@@H](CCCNC(=N)N)C(=O)N[C@@H](CCC(N)=O)C(=O)N[C@@H](CCCNC(=N)N)C(=O)N[C@@H](Cc1ccc(O)cc1)C(N)=O)[C@@H](C)O)C(C)C [Compound 138, N{alpha-4}-(3-methylbutanoyl)-N{epsilon-7}-[2-(2-{2-[2-(2-{2-[(4S)-4-carboxy-4-(17-carboxyheptadecanamido)butanamido]ethoxy}ethoxy)acetamido]ethoxy}ethoxy)acetamido]-[4A,6A,7K,9E,18Q,19Q,22V,28Y,30W,31L]hPYY (4-36)]
8.51 | CC(C)CC(=O)N[C@@H](C)C(=O)N1CCC[C@H]1C(=O)N[C@@H](CCC(=O)O)C(=O)N[C@@H](CCCCNC(=O)COCCOCCNC(=O)COCCOCCNC(=O)CC[C@H](NC(=O)CCCCCCCCCCCCCCCCC(=O)O)C(=O)O)C(=O)N1CCC[C@H]1C(=O)N[C@@H](CCC(=O)O)C(=O)N[C@@H](CCC(=O)O)C(=O)N[C@@H](C)C(=O)N[C@@H](C)C(=O)N[C@@H](CO)C(=O)N1CCC[C@H]1C(=O)N[C@@H](CCC(=O)O)C(=O)N[C@@H](CCC(=O)O)C(=O)N[C@@H](CC(C)C)C(=O)N[C@@H](CCC(N)=O)C(=O)N[C@@H](CCCNC(=N)N)C(=O)N[C@@H](Cc1ccc(O)cc1)C(=O)N[C@@H](Cc1ccc(O)cc1)C(=O)N[C@H](C(=O)N[C@@H](CO)C(=O)N[C@@H](C)C(=O)N[C@@H](CCCNC(=N)N)C(=O)N[C@@H](Cc1c[nH]cn1)C(=O)N[C@@H](Cc1ccc(O)cc1)C(=O)N[C@@H](Cc1ccc(O)cc1)C(=O)N[C@@H](CC(N)=O)C(=O)N[C@@H](Cc1c[nH]c2ccccc12)C(=O)N[C@@H](CC(C)C)C(=O)N[C@H](C(=O)N[C@@H](CCCNC(=N)N)C(=O)N[C@@H](CCC(N)=O)C(=O)N[C@@H](CCCNC(=N)N)C(=O)N[C@@H](Cc1ccc(O)cc1)C(N)=O)[C@@H](C)O)C(C)C [Compound 141, N{alpha-4}-(3-methylbutanoyl)-N{epsilon-7}-[2-(2-{2-[2-(2-{2-[(4S)-4-carboxy-4-(17-carboxyheptadecanamido)butanamido]ethoxy}ethoxy)acetamido]ethoxy}ethoxy)acetamido]-[4A,7K,9E,11A,18Q,22V,24A,28Y,30W,31L]hPYY (4-36)] (Isovaleryl-APEK([AEEA-AEEA-γGlu-C18 diacid])PEEAASPEELQRYYVSARHYYNWLTRQRY-NH2)
8.93 | CC(C)CC(=O)N[C@@H](C)C(=O)N1CCC[C@H]1C(=O)N[C@@H](CCC(=O)O)C(=O)N[C@@H](CCCCNC(=O)COCCOCCNC(=O)COCCOCCNC(=O)CC[C@H](NC(=O)CCCCCCCCCCCCCCCCC(=O)O)C(=O)O)C(=O)N1CCC[C@H]1C(=O)N1CCC[C@H]1C(=O)N[C@@H](CCC(=O)O)C(=O)N[C@@H](CCC(=O)O)C(=O)N[C@@H](C)C(=O)N[C@@H](CO)C(=O)N1CCC[C@H]1C(=O)N[C@@H](CCC(=O)O)C(=O)N[C@@H](CCC(=O)O)C(=O)N[C@@H](CC(C)C)C(=O)N[C@@H](CCC(N)=O)C(=O)N[C@@H](CCCNC(=N)N)C(=O)N[C@@H](Cc1ccc(O)cc1)C(=O)N[C@@H](Cc1ccc(O)cc1)C(=O)N[C@H](C(=O)N[C@@H](CO)C(=O)N[C@@H](CC(C)C)C(=O)N[C@@H](CCCNC(=N)N)C(=O)N[C@@H](Cc1c[nH]cn1)C(=O)N[C@@H](Cc1ccc(O)cc1)C(=O)N[C@@H](Cc1ccc(O)cc1)C(=O)N[C@@H](CC(N)=O)C(=O)N[C@@H](Cc1c[nH]c2ccccc12)C(=O)N[C@@H](CC(C)C)C(=O)N[C@H](C(=O)N[C@@H](CCCNC(=N)N)C(=O)N[C@@H](CCC(N)=O)C(=O)N[C@@H](CCCNC(=N)N)C(=O)N[C@@H](Cc1ccc(O)cc1)C(N)=O)[C@@H](C)O)C(C)C [Compound 142, N{alpha-4}-(3-methylbutanoyl)-N{epsilon-7}-[2-(2-{2-[2-(2-{2-[(4S)-4-carboxy-4-(17-carboxyheptadecanamido)butanamido]ethoxy}ethoxy)acetamido]ethoxy}ethoxy)acetamido]-[4A,7K,9P,11E,18Q,22V,28Y,30W,31L]hPYY (4-36)]
